From PubChem BioAssay AID2743 (NMMLSC, 2010) come the findings set out here.

Activity calls are given as the source filed them.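 How the source made its calls: active means fitted half-maximal concentration for change in GFP expression of 33 µM or less; inactive means the rest.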

This assay is described as follows: concentration-dependent AGP1-GFP change, TOR pathway – cell-based, flow cytometry, S. cerevisiae, MLPCN hits, dose response (AID 2743). Particulars: S. cerevisiae AGP1-GFP strain, flow cytometry GFP, 3 h; at 33 µM (top of the series). (In flow cytometry, cells or beads pass a laser one at a time.)
As to `Oc1c(I)cc(I)c2cccnc12`, the GFP fluorescence (kMESF) was 24.6 kMESF (inactive).

`COc1ccc([N+](=O)[O-])c(S(=O)(=O)c2ccc(Cl)cc2)n1`: the GFP fluorescence (kMESF) was 37.1 kMESF (inactive). Next, `Cc1[nH][nH]c(=O)c1C(c1ccc(-c2ccc(Cl)cc2)o1)c1c(C)[nH][nH]c1=O`: 39.2 kMESF (inactive); `COc1ccc([C@@]2(C(C)C)ON(c3ccccc3C(F)(F)F)C2=O)cc1`: 39.4 kMESF (inactive). Turning to `CCC(=O)Nc1ccc(NC(=O)c2cc3ccccc3o2)c(OC)c1`, the GFP fluorescence (kMESF) was 44.6 kMESF (inactive).

As for `COc1ccc(N2C(=O)C(Cl)=C(NCc3ccccc3)C2=O)cc1`, the GFP fluorescence (kMESF) was 40.6 kMESF (inactive). Next, `Cc1ccc(C(=O)/C=C/C(=O)c2ccc(C)cc2)cc1`: 43.8 kMESF (inactive); `CCOc1ccccc1/C=c1\sc2ncnn2c1=O`: 39.5 kMESF (inactive); `Cc1cc(C(=O)COC(=O)c2ccc[nH]c2=O)c(C)n1-c1ccccc1F`: 24.1 kMESF (inactive). In the case of `O=C(COc1ccccc1)NNC(=S)NC(=O)c1ccccc1`, the GFP fluorescence (kMESF) was 42.7 kMESF (inactive). The value for `Cc1cc(C)c(OCC(=O)Nc2nc(-c3ccccn3)cs2)c(C)c1` was 28.8 kMESF (inactive); that for `CC1=C/C(=N\OS(=O)(=O)c2ccccc2)C(C)=CC1=O` was 34.7 kMESF (inactive); that for `CCCc1cc(N2CCN(c3ccccn3)CC2)n2nc(C)c(-c3ccccc3)c2n1` was 38.8 kMESF (inactive). For the compound `CC(C)[C@]1(c2ccccc2)ON(c2ccccc2C(F)(F)F)C1=O`, the GFP fluorescence (kMESF) was 34.2 kMESF (inactive). For the compound `Cc1ccsc1/C=C1\C(=O)NC(=S)N(C)C1=O`, the GFP fluorescence (kMESF) is 20.6 kMESF (inactive).

For the compound `Cc1ccc(/C=C2\C(=O)NC(=S)N(c3ccccc3F)C2=O)s1`, the GFP fluorescence (kMESF) was 26.9 kMESF (inactive).

`Cc1ccc(C(=O)Sc2cccccc2=O)cc1`: the GFP fluorescence (kMESF) was 33 kMESF (inactive). Next, `Cc1cccc(C(=O)NNC(=S)NC(=O)c2ccccc2)c1`: 44.8 kMESF (inactive). As for `Cc1ccc(/C=c2\sc3nc(-c4cccs4)nn3c2=O)o1`, the GFP fluorescence (kMESF) is 42.1 kMESF (inactive).

Take `CCCCc1ccc(NC(=O)CC(C)=O)cc1`: the GFP fluorescence (kMESF) was 37.2 kMESF (inactive). Next, `CCCCC(=O)NC(=S)NNC(=O)CCc1ccccc1`: 28.1 kMESF (inactive); `CC1(C(=O)NC(=S)NNC(=O)c2ccncc2)CCCCC1`: 34.2 kMESF (inactive). Next, `CC(=O)[C@]1(O)Cc2c(O)c3c(c(O)c2[C@@H](O[C@H]2C[C@H](N)[C@H](O)[C@H](C)O2)C1)C(=O)c1ccccc1C3=O`: 33.4 kMESF (inactive); `C=CCOc1ccccc1C(=O)/C=C1/C(=O)Nc2ccccc21`: 43.2 kMESF (inactive); `N/C(Cc1ccc(Cl)cc1)=N\OC(=O)c1ccccc1`: 23.8 kMESF (inactive). Next, `Cc1ccc(/C=C2\C(=O)NC(=S)N(c3ccc(F)cc3)C2=O)s1`: 31.9 kMESF (inactive); `O=C1C=C(Nc2ccc(Cl)cc2)C(=O)N1c1ccc(Cl)cc1`: 37.8 kMESF (inactive). In the case of `COc1ccc2c(/C=C/c3cc[n+](C)cc3)c[nH]c2c1`, the GFP fluorescence (kMESF) was 44.4 kMESF (inactive). Next, `O=c1c2cnn(-c3ccccc3)c2ncn1Cc1ccco1`: 29.6 kMESF (inactive); `COc1ccccc1-c1nc2s/c(=C\c3cccs3)c(=O)n2n1`: 27.7 kMESF (inactive).

For the compound `O=C(NOC(=O)c1ccccc1)c1ccccc1`, the GFP fluorescence (kMESF) was 25.9 kMESF (inactive). Next, `CCCc1cc(=O)oc2cc(C)cc(OCC(=O)NC3CC3)c12`: 41 kMESF (inactive); `O=C(Nc1nnc(-c2ccc3c(c2)CCCC3)o1)c1ccc(Cl)cc1Cl`: 20.9 kMESF (inactive). As for `COc1ccc(-c2cc(C(F)(F)F)nc(S(C)(=O)=O)n2)cc1`, the GFP fluorescence (kMESF) is 36 kMESF (inactive). Next, `N/C(=N\OC(=O)c1cccc(Br)c1)c1ccccc1`: 21.7 kMESF (inactive); `CN(C)/C=C/C(=O)c1ccc(-c2ccc(Cl)cc2Cl)o1`: 27.8 kMESF (inactive); `COc1cc(/C=C2\CC/C(=C\c3cc(OC)c(O)c(OC)c3)C2=O)cc(OC)c1O`: 34.6 kMESF (inactive). The value for `CN(C)c1ccc(N=Cc2nc(-c3ccccc3)oc2OC(=O)c2cccc(Cl)c2)cc1` was 30.1 kMESF (inactive). With `Cc1cc(NC(=O)c2cccnc2Cl)ccc1NC(=O)c1cc2ccccc2o1`, the GFP fluorescence (kMESF) is 42.4 kMESF (inactive).

For `Nc1ccccc1SC(C[N+](=O)[O-])c1ccccc1` (stereo not drawn), the GFP fluorescence (kMESF) was 39.9 kMESF (inactive). Next, `O=C(c1ccccc1)c1ccccc1N1C(=O)C=CC1=O`: 38 kMESF (inactive); `COc1ccccc1[C@]1(C)ON(c2ccccc2C(F)(F)F)C1=O`: 30.3 kMESF (inactive).

Regarding `COc1cccc2cc(-c3nc4ccccc4o3)c(=O)oc12`, the GFP fluorescence (kMESF) is 20.9 kMESF (inactive). Regarding `O=C(NC(=S)NNC(=O)c1cnccn1)c1ccc(F)cc1`, the GFP fluorescence (kMESF) was 37.3 kMESF (inactive). Next, `CCN(CC(=O)Nc1cc(S(=O)(=O)N2CCOCC2)ccc1Cl)Cc1ccccc1`: 37.6 kMESF (inactive); `Cc1ccc2nc(/C(C#N)=C/c3ccc(O)c(O)c3)[nH]c2c1`: 41.6 kMESF (inactive); `COc1ccc(C2=CC(=O)N(Nc3ccccc3)C2=O)cc1`: 39.9 kMESF (inactive). The value for `Cc1cccc(C(=O)NC(=S)NNC(=O)Cc2ccccc2)c1` was 37.6 kMESF (inactive). Regarding `N#C/C(=C\c1cc(Br)ccc1F)C(=O)NC1CC1`, the GFP fluorescence (kMESF) is 30.6 kMESF (inactive).

Regarding `CCOc1ccc(NC2=C(Cl)C(=O)N(Cc3ccccc3)C2=O)cc1`, the GFP fluorescence (kMESF) is 41.3 kMESF (inactive).

In the case of `O=C(Nc1ccc(Cl)cc1)ON=C1CCCC1`, the GFP fluorescence (kMESF) was 28 kMESF (inactive). Next, `C=CCOc1cccc(C(=O)/C=C2/C(=O)Nc3ccccc32)c1`: 43.2 kMESF (inactive); `O=C(Nc1ccc(O)cc1)C1CCCN1S(=O)(=O)c1ccc(F)cc1` (stereo not drawn): 42.4 kMESF (inactive); `CCN(CC)c1ccc(/C=C2/C(=O)c3ccc(C(=O)O)cc3C2=O)cc1`: 655 kMESF (inactive). The value for `Cc1ccc(C)c(/C=C/C(=O)c2ccccc(=O)c2O)c1` was 10.5 kMESF (inactive); that for `Cc1ccccc1OCC(=O)NNC(=S)NC(=O)c1ccco1` was 43.5 kMESF (inactive); that for `CC(Oc1cccc(Cl)c1)C(=O)Nc1nc(-c2ccccn2)cs1` (stereo not drawn) was 50.7 kMESF (inactive). Next, `CCOC(=O)c1c(C)oc2c1c(C(c1cccnc1)N1CCOCC1)c(O)c1ccccc12` (stereo not drawn): 29.9 kMESF (inactive); `O=C1c2ccccc2C(=O)N1OS(=O)(=O)c1ccccc1`: 29.6 kMESF (inactive); `O=C(C#Cc1ccccc1)c1cccc([N+](=O)[O-])c1`: 52 kMESF (inactive).

For the compound `CCOc1ccc(C(Nc2cccnc2)c2cc(Cl)c3cccnc3c2O)cc1` (stereo not drawn), the GFP fluorescence (kMESF) is 36.3 kMESF (inactive). The value for `C/C(=N\Nc1ncnc2sc(C)c(C)c12)c1ccccn1` was 26.5 kMESF (inactive).

Turning to `O=C(Nc1nc(-c2ccccn2)cs1)c1cc2ccccc2o1`, the GFP fluorescence (kMESF) was 38.7 kMESF (inactive). In the case of `O=C(Nc1ccc(NC(=O)c2cc3ccccc3o2)cc1)c1ccc2c(c1)OCCO2`, the GFP fluorescence (kMESF) was 42.8 kMESF (inactive).

In the case of `CCc1ccc2c(c1)/C(=C/C(=O)c1cccs1)C(=O)N2`, the GFP fluorescence (kMESF) is 42.4 kMESF (inactive). Next, `O=C(/C=C/c1ccnc2ccccc12)c1cccs1`: 45.9 kMESF (inactive); `CC(=O)OC[C@]12CC[C@H]3[C@@](C)(CC[C@H]4C(C)(C)CCC[C@]34C)[C@@H]1C[C@H](C1=CC(=O)O[C@@H]1OC(C)=O)O2`: 31 kMESF (inactive); `O=C(Nc1ccc(N2CCOCC2)cc1)C1CCN(S(=O)(=O)c2ccc3c(c2)OCCO3)CC1`: 34 kMESF (inactive).

Consider `CC(Oc1ccc(Br)cc1)C(=O)Nc1nc(-c2ccccn2)cs1` (stereo not drawn), for which the GFP fluorescence (kMESF) is 46.5 kMESF (inactive). Take `CC(=O)NN1C(=O)/C(=C/c2ccc(Br)o2)SC1=S`: the GFP fluorescence (kMESF) was 40.5 kMESF (inactive). Next, `CCOc1ccc(N2C(=O)/C(=C\c3cccs3)C(=O)NC2=S)cc1`: 27.9 kMESF (inactive); `CN(C)C(=O)Oc1ccnc2cc(Cl)ccc12`: 42.3 kMESF (inactive). The value for `O=c1cc(CSc2ccc(Cl)cc2)nc(-c2ccccn2)[nH]1` was 25.7 kMESF (inactive); that for `N#C/C(=C\c1ccccn1)c1nc2ccccc2s1` was 41.8 kMESF (inactive); that for `Cc1ccc(/C=C2\SC(=S)N(CC3CCCO3)C2=O)o1` (stereo not drawn) was 42 kMESF (inactive).

Turning to `O=C1C=CC(=O)N1c1ccc(O)cc1`, the GFP fluorescence (kMESF) is 48.3 kMESF (inactive). The value for `O=C(Oc1oc(-c2ccco2)nc1C=Nc1ccccc1)c1ccoc1` was 44.7 kMESF (inactive). For the compound `Cc1ccc(/C=C/C(=O)c2ccccc(=O)c2O)c(C)c1`, the GFP fluorescence (kMESF) was 28.9 kMESF (inactive).

In the case of `N#Cc1ccc(N=c2ssnc2Cl)cc1`, the GFP fluorescence (kMESF) is 33.2 kMESF (inactive). As for `CCCCCCCCn1sccc1=O`, the GFP fluorescence (kMESF) is 31.5 kMESF (inactive). Next, `CCOC(=O)C(C(=O)OCC)C(C(=O)OCC)N1CCOCC1` (stereo not drawn): 41 kMESF (inactive); `CC(=O)Oc1oc(-c2ccccc2)nc1C=Nc1ccccc1`: 33.5 kMESF (inactive). Next, `COc1cc(/C=C2\C(=O)ON=C2c2ccc(Cl)cc2)ccc1O`: 33 kMESF (inactive).
